From patent publication US20260070945A1, “MACROCYCLIC IMMUNOMODULATORS” (Bristol-Myers Squibb Company, priority 2022, published 2026)
*1 amine or outer side, *2 acyl side, *3 side chain or, on linkers, in order; H or OH if unused. Where a SMILES comes first, the peptide text is derived from it. Bridges are numbered along the chain shown (N, C = ends). [ ]: non-standard residue; d: D form. The star is where a group is joined. ξ: configuration not given here. Phe(3-CF3) = N[C@@H](Cc1cccc(C(F)(F)F)c1)C(=O)O; Phe(4-CONH2) = NC(=O)c1ccc(C[C@H](N)C(=O)O)cc1; Phe(4-COOH) = N[C@@H](Cc1ccc(C(=O)O)cc1)C(=O)O; Bip = N[C@@H](Cc1ccc(-c2ccccc2)cc1)C(=O)O; Phe(3-Me) = Cc1cccc(C[C@H](N)C(=O)O)c1; Phe(4-Me) = Cc1ccc(C[C@H](N)C(=O)O)cc1; γGlu = O=C(O)[C@H](CCC(=O)[*:2])N[*:1]; NH(CH2)12COOH = O=C(O)CCCCCCCCCCCCN*; Val(3-OH) = CC(C)(O)[C@H](N)C(=O)O; Cha = N[C@@H](CC1CCCCC1)C(=O)O; Cit = NC(=O)NCCC[C@H](N)C(=O)O; Ile(3ξ) = CCC(C)[C@H](N)C(=O)O; Thr(3ξ) = CC(O)[C@H](N)C(=O)O; Carboxymethyl = O=C(O)C*; NMeA = CN[C@@H](C)C(=O)O; Aun = NCCCCCCCCCCC(=O)O; Dab = NCC[C@H](N)C(=O)O; AEEA = NCCOCCOCC(=O)O

Biological target: T1, PD-1/PD-L1 interaction (PE-labeled human PD-L1-Ig binding to Jurkat cell line over-expressing human PD-1) (Homo sapiens, UniProt Q15116)
T1 construct: expressed in transfected cells; host or cells: Jurkat
Test: Jurkat-PD-1 Cell Binding High-Content Screening Assay (CBA)
Settings: Jurkat-hPD-1 cells, PE-labeled PD-L1-Ig 20 nM final; read-out: Jurkat HPD1 PDL1 IC50
Description: Example 2: Jurkat-PD-1 Cell Binding High-Content Screening Assay (CBA)
Phycoerythrin (PE) was covalently linked to the Ig epitope tag of human PD-L1-Ig and fluorescently-labeled PD-L1-Ig was used for binding studies with a Jurkat cell line over-expressing human PD-1 (Jurkat-PD-1). Briefly, 8×10^3 Jurkat-hPD-1 cells were seeded into 384 well plates in 20 μl of DMEM supplemented with 10% fetal calf serum. 100 nl of compound was added to cells followed by incubation at 37° C. for 2 hours. Then, 5 μl of PE-labeled PD-L1-Ig (20 nM final), diluted in DMEM supplemented with 10% fetal calf serum. After 1 hour incubation, cells were fixed with […] in dPBS containing 10 μg/ml Hoechst 33342 and then washed 3× in 100 μl dPBS. Data was collected and processed using a Cell Insight NXT High Content Imager and associated software.

T1 sequence (Q15116 25-288): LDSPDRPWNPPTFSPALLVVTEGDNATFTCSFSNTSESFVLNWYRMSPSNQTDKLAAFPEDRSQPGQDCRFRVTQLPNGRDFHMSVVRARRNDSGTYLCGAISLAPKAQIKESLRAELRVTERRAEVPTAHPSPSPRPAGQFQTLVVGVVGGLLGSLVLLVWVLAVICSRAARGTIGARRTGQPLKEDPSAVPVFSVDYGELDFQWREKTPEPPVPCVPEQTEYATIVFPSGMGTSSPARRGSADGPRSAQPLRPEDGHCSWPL

IC50 [nM]	Compound
108	CC(C)C[C@H]1NC(=O)[C@H](C)N(C)C(=O)[C@H](CCCNC(N)=O)NC(=O)[C@H](Cc2ccc(-c3ccccc3)cc2)NC(=O)[C@H](Cc2ccc(C(=O)O)cc2)NC(=O)[C@H](Cc2cccc(C(F)(F)F)c2)NC(=O)[C@H](CC(=O)O)NC(=O)[C@H](Cc2ccc(OCC(=O)O)cc2)NC(=O)[C@H](Cc2ccc(C(=O)O)cc2)NC(=O)CSC[C@@H](C(=O)N[C@@H](CCN)C(=O)NCCOCCOCC(=O)N[C@@H](CCC(=O)NCCOCCOCC(=O)NCCCCCCCCCCCCC(=O)O)C(=O)O)NC(=O)[C@H](CC(=O)O)NC(=O)[C@H](C(C)(C)O)NC(=O)[C@H](CC2CCCCC2)NC(=O)[C@H](CCN)NC1=O [Example 1186] ({CH2CO}-[Phe(4-COOH)]Y(Carboxymethyl)D[Phe(3-CF3)][Phe(4-COOH)][Bip][Cit][NMeA][dL][Dab][Cha][Val(3-OH)]DC[Dab][AEEA][γGlu][AEEA]-{NH(CH2)12COOH}; thioether N-14)
13.6	CC(C)C[C@@H]1NC(=O)[C@H](Cc2c[nH]c3ccccc23)NC(=O)[C@H](CC(=O)O)NC(=O)[C@H](Cc2ccc(C(=O)O)cc2)NC(=O)[C@H](Cc2ccc(OCC(=O)O)cc2)NC(=O)CSC[C@@H](C(=O)NCC(=O)N[C@@H](CCN)C(=O)NCCCCCCCCCCC(=O)O)NC(=O)[C@H](CO)NC(=O)[C@H](C(C)C)NC(=O)[C@H](CC2CCCCC2)NC(=O)[C@H](CCN)NC(=O)[C@H](CC(C)C)NC(=O)[C@H](C)N(C)C(=O)[C@H](C(C)C)NC(=O)[C@H](Cc2ccc(-c3ccccc3)cc2)NC1=O [Example 1037] ({CH2CO}-Y(Carboxymethyl)[Phe(4-COOH)]DWL[Bip]V[NMeA]L[Dab][Cha]VSCG[Dab][Aun]-OH; thioether N-14)
26.9	Cc1ccc(C[C@@H]2NC(=O)[C@H](Cc3cccc(C)c3)NC(=O)[C@H](CC(=O)O)NC(=O)[C@H](Cc3ccc(C(=O)O)cc3)NC(=O)[C@H](CCN)NC(=O)CSC[C@@H](C(=O)N[C@@H](CCN)C(=O)NCCCCCCCCCCC(=O)O)NC(=O)[C@H](CO)NC(=O)[C@H](C(C)(C)O)NC(=O)[C@H](CC3CCCCC3)NC(=O)[C@H](CCN)NC(=O)[C@@H](CC(C)C)NC(=O)[C@H](C)N(C)C(=O)[C@H](Cc3ccc(OCC(=O)O)cc3)NC(=O)[C@H](Cc3ccc(-c4ccccc4)cc3)NC2=O)cc1 [Example 1301] ({CH2CO}-[Dab][Phe(4-COOH)]D[Phe(3-Me)][Phe(4-Me)][Bip]Y(Carboxymethyl)[NMeA][dL][Dab][Cha][Val(3-OH)]SC[Dab][Aun]-OH; thioether N-14)
65	CCC(C)[C@@H]1NC(=O)[C@H](Cc2ccc(-c3ccccc3)cc2)NC(=O)[C@H](CC(C)C)NC(=O)[C@H](Cc2c[nH]c3ccccc23)NC(=O)[C@H](CC(=O)O)NC(=O)[C@H](Cc2ccc(O)cc2)NC(=O)[C@H](CC(N)=O)NC(=O)CSC[C@@H](C(=O)N[C@H](CC(N)=O)C(=O)NCCOCCOCC(=O)NCCCCCCCCCCC(=O)O)NC(=O)[C@H](CO)NC(=O)[C@H](C(C)C)NC(=O)[C@H](CC(C)C)NC(=O)[C@H](CCN)NC(=O)[C@@H](CC(C)C)NC(=O)[C@H](C)N(C)C1=O (stereo partly drawn) [Example 2063] ({CH2CO}-NYDWL[Bip][Ile(3ξ)][NMeA][dL][Dab]LVSC[dN][AEEA][Aun]-OH; thioether N-14)
18.2	COC[C@@H]1NC(=O)CSC[C@@H](C(=O)N[C@@H](CCN)C(=O)NCCCCCCCCCCCCC(=O)O)NC(=O)[C@H](Cc2c[nH]cn2)NC(=O)[C@H](C(C)(C)O)NC(=O)[C@H](CC2CCCCC2)NC(=O)[C@H](CCN)NC(=O)[C@@H](CC(C)C)NC(=O)[C@H](C)N(C)C(=O)[C@H](CCCNC(N)=O)NC(=O)[C@H](Cc2ccc(-c3ccccc3)cc2)NC(=O)[C@H](Cc2ccc(C(=O)O)cc2)NC(=O)[C@H](Cc2cccc(C(F)(F)F)c2)NC(=O)[C@H](CC(=O)O)NC(=O)[C@H](Cc2ccc(OCC(=O)O)cc2)NC1=O [Example 1141] ({CH2CO}-S(Me)Y(Carboxymethyl)D[Phe(3-CF3)][Phe(4-COOH)][Bip][Cit][NMeA][dL][Dab][Cha][Val(3-OH)]HC[Dab]-{NH(CH2)12COOH}; thioether N-14)
13	Cc1cccc(C[C@@H]2NC(=O)[C@H](CC(=O)O)NC(=O)[C@H](Cc3ccc(C(=O)O)cc3)NC(=O)[C@H](Cc3ccc(OCC(=O)O)cc3)NC(=O)CSC[C@@H](C(=O)N[C@H](CC(N)=O)C(=O)NCCCCCCCCCCC(=O)O)NC(=O)[C@H](C(C)O)NC(=O)[C@H](C(C)C)NC(=O)[C@H](CC3CCCCC3)NC(=O)[C@H](CCN)NC(=O)[C@@H](CC(C)C)NC(=O)[C@H](C)N(C)C(=O)[C@H](CCCNC(N)=O)NC(=O)[C@H](Cc3ccc(-c4ccccc4)cc3)NC(=O)[C@H](CC(C)C)NC2=O)c1 (stereo partly drawn) [Example 2327] ({CH2CO}-Y(Carboxymethyl)[Phe(4-COOH)]D[Phe(3-Me)]L[Bip][Cit][NMeA][dL][Dab][Cha]V[Thr(3ξ)]C[dN][Aun]-OH; thioether N-14)
12.6	Cc1cccc(C[C@@H]2NC(=O)[C@H](CC(=O)O)NC(=O)[C@H](Cc3ccc(OCC(=O)O)cc3)NC(=O)[C@H](CCN)NC(=O)CSC[C@@H](C(=O)N[C@@H](CCN)C(=O)NCCCCCCCCCCC(=O)O)NC(=O)[C@H](Cc3c[nH]cn3)NC(=O)[C@H](C(C)(C)O)NC(=O)[C@H](CC3CCCCC3)NC(=O)[C@H](CCN)NC(=O)[C@@H](CC(C)C)NC(=O)[C@H](C)N(C)C(=O)[C@H](Cc3ccc(OCC(=O)O)cc3)NC(=O)[C@H](Cc3ccc(-c4ccccc4)cc3)NC(=O)[C@H](Cc3ccc(OCC(=O)O)cc3)NC2=O)c1 [Example 2483] ({CH2CO}-[Dab]Y(Carboxymethyl)D[Phe(3-Me)]Y(Carboxymethyl)[Bip]Y(Carboxymethyl)[NMeA][dL][Dab][Cha][Val(3-OH)]HC[Dab][Aun]-OH; thioether N-14)
3.4	CC(C)C[C@@H]1NC(=O)[C@H](Cc2c[nH]c3ccccc23)NC(=O)[C@H](CC(=O)O)NC(=O)[C@H](Cc2ccc(C(=O)O)cc2)NC(=O)[C@H](Cc2ccc(OCC(=O)O)cc2)NC(=O)CSC[C@@H](C(=O)N[C@@H](CCN)C(=O)NCCOCCOCC(=O)NCCCCCCCCCCC(=O)O)NC(=O)[C@H](CCC(N)=O)NC(=O)[C@H](C(C)C)NC(=O)[C@H](CC2CCCCC2)NC(=O)[C@H](CCN)NC(=O)[C@@H](CC(C)C)NC(=O)[C@H](C)N(C)C(=O)[C@H](C(C)C)NC(=O)[C@H](Cc2ccc(-c3ccccc3)cc2)NC1=O [Example 1126] ({CH2CO}-Y(Carboxymethyl)[Phe(4-COOH)]DWL[Bip]V[NMeA][dL][Dab][Cha]VQC[Dab][AEEA][Aun]-OH; thioether N-14)

Same assay, conditions: PE-labeled PD-L1-Ig 20 nM final, Jurkat-hPD-1 cells; read-out: Jurkat HPD1 PDL1 IC50

IC50 [nM]	Compound
16.6	Cc1cccc(C[C@@H]2NC(=O)[C@H](CC(=O)O)NC(=O)[C@H](Cc3ccc(C(=O)O)cc3)NC(=O)[C@H](C(C)O)NC(=O)CSC[C@@H](C(=O)N[C@@H](CCN)C(=O)NCCCCCCCCCCCCC(=O)O)NC(=O)[C@H](CO)NC(=O)[C@H](C(C)(C)O)NC(=O)[C@H](CC3CCCCC3)NC(=O)[C@H](CCN)NC(=O)[C@@H](CC(C)C)NC(=O)[C@H](C)N(C)C(=O)[C@H](CCCNC(=N)N)NC(=O)[C@H](Cc3ccc(-c4ccccc4)cc3)NC(=O)[C@H](Cc3ccc(C(=O)O)cc3)NC2=O)c1 (stereo partly drawn) [Example 2644] ({CH2CO}-[Thr(3ξ)][Phe(4-COOH)]D[Phe(3-Me)][Phe(4-COOH)][Bip]R[NMeA][dL][Dab][Cha][Val(3-OH)]SC[Dab]-{NH(CH2)12COOH}; thioether N-14)
20.2	Cc1cccc(C[C@@H]2NC(=O)[C@H](CC(=O)O)NC(=O)[C@H](Cc3ccc(C(=O)O)cc3)NC(=O)[C@H](C(C)O)NC(=O)CSC[C@@H](C(=O)N[C@@H](CCN)C(=O)NCCOCCOCC(=O)NCCCCCCCCCCC(=O)O)NC(=O)[C@H](CCC(=O)O)NC(=O)[C@H](C(C)O)NC(=O)[C@H](CC3CCCCC3)NC(=O)[C@H](CCN)NC(=O)[C@@H](CC(C)C)NC(=O)[C@H](C)N(C)C(=O)[C@H](Cc3ccc(C(=O)O)cc3)NC(=O)[C@H](Cc3ccc(-c4ccccc4)cc3)NC(=O)[C@H](Cc3ccc(C(=O)O)cc3)NC2=O)c1 (stereo partly drawn) [Example 2555] ({CH2CO}-[Thr(3ξ)][Phe(4-COOH)]D[Phe(3-Me)][Phe(4-COOH)][Bip][Phe(4-COOH)][NMeA][dL][Dab][Cha][Thr(3ξ)]EC[Dab][AEEA][Aun]-OH; thioether N-14)
2.3	CC(=O)NCCCC[C@@H]1NC(=O)[C@H](C(C)(C)O)NC(=O)[C@H](CC2CCCCC2)NC(=O)[C@H](CCN)NC(=O)[C@@H](CC(C)C)NC(=O)[C@H](C)N(C)C(=O)[C@H](CCC(=O)O)NC(=O)[C@H](Cc2ccc(-c3ccccc3)cc2)NC(=O)[C@H](Cc2ccc(C(N)=O)cc2)NC(=O)[C@H](Cc2cccc(C)c2)NC(=O)[C@H](CC(=O)O)NC(=O)[C@H](Cc2ccc(C(=O)O)cc2)NC(=O)[C@H](Cc2ccc(OCC(=O)O)cc2)NC(=O)CSC[C@@H](C(=O)N[C@@H](CCN)C(=O)NCCOCCOCC(=O)NCCOCCOCC(=O)NCCCCCCCCCCC(=O)O)NC1=O [Example 2533] ({CH2CO}-Y(Carboxymethyl)[Phe(4-COOH)]D[Phe(3-Me)][Phe(4-CONH2)][Bip]E[NMeA][dL][Dab][Cha][Val(3-OH)]K(Ac)C[Dab][AEEA][AEEA][Aun]-OH; thioether N-14)
